Tested on: H1 human embryonic stem cells
Test: Step-wise differentiation, high content analysis of SOX17, cell number, insulin, glucagon (Example 16)
Assay type: cell-based
Method: The assay was initiated by aspirating the culture medium from each well and adding back an aliquot (0.5 ml) of test medium. Test conditions for the first step of differentiation were conducted over a three-day period, feeding daily by aspirating and replacing the medium from each well with fresh test medium. On the first day of assay, 100 ng/ml activin A (PeproTech; Cat #120-14) or 100 ng/ml GDF-8 (R&D Systems, Cat #788-G8) was added to respective assay wells where each growth factor was diluted into RPMI-1640 medium (Invitrogen; Cat #: 22400) with 2% Albumin Bovine Fraction V, Fatty Acid Free (FAF BSA) (Proliant Inc. Cat #: SKU 68700), and 20 ng/ml Wnt3a (R&D Systems; Cat #1324-WN/CF). On the second day of assay, 100 ng/ml activin A or 100 ng/ml GDF-8 was diluted into RPMI-1640 medium supplemented with 2% FAF BSA without Wnt3a. In some test samples using GDF-8, Wnt3a was replaced with a small molecule compound, added only on the first day of definitive endoderm differentiation. These small molecules included Compound 19 (2.5 μM in assay), Compound 202 (2.5 μM in assay), Compound 40 (2.5 μM in assay), or a commercially available GSK3 inhibitor BIO (0.5 μM in assay) (EMD Chemicals, Inc.; Cat #361550). At the conclusion of the first step of differentiation, cells from some wells were harvested for flow cytometry analysis to evaluate levels of CXCR4, a marker of definitive endoderm formation. Additional wells were harvested for RT-PCR analysis to measure other markers of differentiation.
Step 5 of the differentiation protocol was carried out over seven days in DMEM-high glucose with 0.1% Albumax, 0.5× Insulin-Transferrin-Selenium, and 1 μM Alk 5 inhibitor. […]
Imaging was performed using an IN Cell Analyzer 1000 (GE Healthcare) utilizing the 51008bs dichroic for cells stained with Hoechst 33342 and Alexa Fluor 488. […] Segmentation for the nuclei was determined based on gray-scale levels (baseline range 100-300) and nuclear size. Averages and standard deviations were calculated for each replicate data set. […]

Compound	relative cell numbers recovered through differentiation step 5 (GDF-8 with compound in step 1, relative to activin A and Wnt3a)	cell numbers and SOX17 expression after step 1 (100 ng/ml GDF-8 with 2.5 μM compound on first day)
CN1CCC(=O)NCCCc2cncc(c2)-c2ncnc(n2)Nc2cccc(c2)C1 [Compound 19, 14-Methyl-3,5,7,14,18,24,28-heptaazatetracyclo[20.3.1.1˜2,6˜0.1˜8,12˜]octacosa-1(26), 2(28), 3,5,8(27), 9,11,22,24-nonaen-17-one]	decrease in cell number	–
C=CCN1CC(=O)NCCCc2cncc(c2)-c2ncnc(n2)Nc2cccc(c2)C1 [Compound 40, 14-Prop-2-en-1-yl-3,5,7,14,17,23,27-heptaazatetracyclo[19.3.1.1˜2.6˜0.1˜8,12˜]heptacosa-1(25), 2(27), 3,5,8(26), 9,11,21,23-nonaen-16-one]	–	cell numbers in culture and SOX17 expression equivalent to treatment with activin A and Wnt3a
